Source: patent publication US20240189307A1, “METHODS OF STABILIZING THE NEURONAL PROTEOME AGAINST COLLAPSE AND PROTECTING VASCULAR CELLS” (ALBERT EINSTEIN COLLEGE OF MEDICINE, priority 2021, published 2024)

Test system: NIH3T3 cells
Experiment: Macroautophagic flux (LC3-II flux with/without lysosomal protease inhibitors)
Format: cell-based, mouse
Details: 20 μM, 16 h
Method: FIG. 10. Characterization of the brain permeable chemical activator of CMA and effect in a mouse model of Frontotemporal dementia-related proteotoxicity. (A) Chemical structure of AR7 and CA77.1. (B) Quantification of the effect of adding increasing concentrations of AR7 and CA77.1 to NIH3T3 cells stably expressing the KFERQ-PS-Dendra reporter. CMA activity was quantified after 16 h treatment as the average of fluorescent puncta per cell. (n>800 cells per condition). (C) Autophagic flux in NIH3T3 cells incubated at 37° C. for 16 h with 20 µM AR7 or CA77.1 or without additions (none). Where indicated lysosomal protease inhibitors (PI) were added to the cells 6 h before lysis. Left: representative immunoblot. […] Right: quantification of LC3-II flux as the difference in LC3-II levels in cells treated with PI relative to untreated. […] (D) Quantification of the effect of adding increasing concentrations of AR7 and CA77.1 to NIH3T3 cells stably expressing the KFERQ-PS-Dendra reporter. CMA activity was quantified after 12 h or 24 h treatment as the average of fluorescent puncta per cell. […] Representative immunoblot of 4-5 mice per genotype and treatment (L) and densitometric quantification of AT8 as monomer [Kruskal-Wallis statistic=20.48, p<0.0001] […] (O, P) Quantification of the number of Iba1-positive microglial cells per mm^2 in the hippocampus [Kruskal-Wallis statistic=10.55, p=0.0051] […]

CC(=O)Nc1ccc(-c2cnc3cc(Cl)ccc3n2)cc1 [CA77.1]
effect on macroautophagy (LC3-II flux): without affecting macroautophagy
